According to patent US8772504B2, “Substituted benzoxazole, benzimidazole, oxazolopyridine and imidazopyridine derivatives as gamma secretase modulators” (Janssen Pharmaceuticals, Inc., priority 2009, dated 2014):

Experiments:
[1] = tested on: Notch-processing activity of the γ-secretase-complex; test: Notch cell-free assay (NICD production from recombinant Notch substrate N99); assay type: biochemical, mouse; details: 1 μM test compound, 0.3-0.5 μM Notch substrate, 37° C. for 6 to 22 h, western blotting
Protocol: The Notch transmembrane domain is cleaved by gamma secretase to release
Notch Intracellular C-terminal Domain (NICD).
To monitor the effect of compounds on NICD production, a recombinant Notch substrate (N99) was prepared. The Notch substrate, comprised of mouse Notch fragment (V1711-E1809), an N-terminal methionine and a C-terminal FLAG sequence ([…]), was expressed in E. coli and purified on a column containing an anti-FLAG M2 affinity matrix.
A typical Notch cell-free assay consisted of 0.3-0.5 μM Notch substrate, an enriched preparation of γ secretase and 1 μM of a test compound (compounds 8, 15, 92, 108, 114 and 130 of the present invention). Controls included a γ secretase inhibitor (GSI), such as (2S)—N-[2-(3,5-difluorophenyeacetyl]-L-alanyl-2-phenyl-glycine 1,1-dimethylethyl ester (DAPT) or (2S)-2-hydroxy-3-methyl-N-[(1S)-1-methyl-2-oxo-2-[[(1S)-2,3,4,5-tetrahydro-3-methyl-2-oxo-1H-3-benzazepin-1-yl]amino]ethyl]-butanamide (Semagacestat), and DMSO, the final concentration of DMSO being 1%. Recombinant Notch substrate was pre-treated with 17 μM DTT (1,4-dithiothreitol) and 0.02% SDS (Sodium Dodecyl Sulfate) and heated at 65° C. for 10 min. The mixture of substrate, gamma secretase and compound/DMSO was incubated at 37° C. for 6 to 22 hours (h). 6 h incubation was sufficient to produce the maximal amount of NICD and the cleaved product remained stable for an additional 16 h. Reaction products were processed for SDS PAGE (Sodium Dodecyl Sulfate-Poly Acrylamide Gel Electrophoresis) and western blotting. Blots were probed with an anti-Flag M2 antibody, followed by LI-COR infrared secondary antibody, and analyzed with the Odyssey Infrared Imaging System (LI-COR® Biosciences).

[2] = tested on: T1, Notch-processing activity of the γ-secretase-complex; test: Notch cell-based assay (N2-CHO/DL-CHO co-culture, Dual-Glo luciferase); parameters: species or system mouse; details: N2-CHO/DL-CHO co-culture 16 h; five-point curve 3 μM-0.3 nM
T1 construct: average IC50 Notch cell-based assay (luciferase readout); other: N2-CHO/DL-CHO co-culture 16 h; five-point curve 3 μM-
Excerpt: The Notch cell-based assay was based on the interaction of Notch and its ligand in a co-culture system and utilized the Dual-Glo Luciferase Assay System (Promega) to monitor NICD production. 2 stable cell lines, N2-CHO and DL-CHO, were established to express full-length mouse Notch2 and Delta respectively. Cells that expressed mouse Notch were also transfected with 2 plasmids, pTP1-Luc and pCMV-RLuc, to express firefly and Renilla luciferase. Expression of firefly luciferase was under the control of TP1 promoter that responded to NICD activation.
N2-CHO cells were seeded at 1×10^5/well in 24-well plates the day before transfection. On the second day, cells were double transfected with 3 μg/well pTP1-Luc (expressing firefly luciferase) and 0.3 ng/well pCMV-RLuc (expressing Renilla luciferase). After 6 h incubation, transfected N2-CHO cells were washed and DL-CHO cells (2×10^5 cells/well) were added.
Compounds were pre-mixed with DL-CHO cell suspension in a five-point curve. Typically, compound treatment was performed in duplicate with a serial 1:10 dilution (3 μM-0.3 nM) in DMSO. The final concentration of DMSO in a given culture was 1%. Controls included non-transfected cells and transfected cells treated with a GSI or DMSO only. Luciferase assays were performed after 16 h co-culture and compound treatment.
The luciferase assay was carried out according to manufacture's instructions. Briefly, cells were washed with PBS (Phosphate Buffered Saline), lysed with Passive Lysis Buffer (Promega), and incubated at room temperature for 20 min. Lysates were mixed with Dual-Glo Luciferase Reagent and the firefly luciferase activity was measured by reading the luminescence signal in the EnVision 2101 Multilabel reader. Dual-Glo Stop & Glo Reagent was then added to each well and the Renilla luciferase signal was measured.

SMILES	melting point	effect on the Notch-processing activity of the γ-secretase-complex (production of NICD) [1]	inhibition in Notch cell-based assay (luciferase readout) [2]
COc1cc(Nc2cccc3c2nc(-c2ccc(F)cc2)n3C)ccc1-n1cnc(C)c1 [Compound 1]	130.9 °C		
COc1cc(Nc2cccc3c2nc(-c2ccc(F)cc2)n3C)ccc1-n1cnc(C)n1 [Compound 4]	185.2 °C		
COc1cc(Nc2nccc3c2nc(-c2ccc(F)cc2)n3C)ccc1-n1cnc(C)c1 [Compound 8]		did not show an effect	
COc1nc(Nc2cccc3c2nc(-c2ccc(F)cc2)n3C)ccc1-n1cnc(C)c1 [Compound 15]		did not show an effect	non-inhibitory
COc1cc(Nc2nccc3c2nc(-c2ccc(F)cc2)n3C)ccc1-n1cnc(C)n1 [Compound 92]		did not show an effect	non-inhibitory
COc1cc(-c2nc3c(Nc4ccc(-n5cnc(C)n5)c(OC)c4)nccc3n2C)ccc1Cl [Compound 114]	186.8 °C	did not show an effect	non-inhibitory
COc1cc(Nc2nccc3c2nc(-c2ccccc2C(F)(F)F)n3C)ccc1-n1cnc(C)n1 [Compound 130]		did not show an effect	non-inhibitory
